Source: patent publication US10760052B2, “Method of inhibiting tau phosphorylation” (priority 2012, dated 2020)

Molecular target: T1, mu opiate receptor (MOR) (Rattus norvegicus, UniProt P33535)
T1 construct: from tissue; host or cells: striatum (membrane preparation)
Format: biochemical
Conditions: for Concentration of FLNA-Binding Compound as Agonist 0.1 μM / Concentration of FLNA-Binding Compound as Agonist 1 μM / Concentration of FLNA-Binding Compound as Agonist 1 μM + BFNA: [35S]GTPγS binding to Gαo in striatal membranes; for Concentration of FLNA-Binding Compound as Agonist 0.1 μM: compound 0.1 μM; for Concentration of FLNA-Binding Compound as Agonist 1 μM: compound 1 μM; for Concentration of FLNA-Binding Compound as Agonist 1 μM + BFNA: compound 1 μM plus 1 μM β-funaltrexamine (MOR antagonist)

T1 sequence (P33535 whole entry): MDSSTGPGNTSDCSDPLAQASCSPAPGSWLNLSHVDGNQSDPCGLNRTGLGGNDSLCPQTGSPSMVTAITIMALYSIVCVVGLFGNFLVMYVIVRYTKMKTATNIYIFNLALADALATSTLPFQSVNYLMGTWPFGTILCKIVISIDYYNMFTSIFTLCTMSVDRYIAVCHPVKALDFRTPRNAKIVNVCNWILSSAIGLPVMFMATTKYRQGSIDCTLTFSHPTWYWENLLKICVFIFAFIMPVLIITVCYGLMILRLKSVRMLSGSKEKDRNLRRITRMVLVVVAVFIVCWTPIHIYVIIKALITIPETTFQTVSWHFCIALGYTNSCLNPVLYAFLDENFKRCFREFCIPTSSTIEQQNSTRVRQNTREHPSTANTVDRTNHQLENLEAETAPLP

| Compound | % DAMGO (0.1 μM) [%] | % DAMGO (1 μM) [%] | % DAMGO + BFNA [%] | Concentration of FLNA-Binding Compound as Agonist 0.1 μM [%] | Concentration of FLNA-Binding Compound as Agonist 1 μM [%] | Concentration of FLNA-Binding Compound as Agonist 1 μM + BFNA [%] |
| --- | --- | --- | --- | --- | --- | --- |
| COc1cc(F)ccc1C(=O)CC1c2c(cc3c(c2OC)OCO3)CC[N+]1(C)C (stereo not drawn) [Compound B0007] | 95.3 | 86.1 | 98.2 | 168.3 | 223.3 | 64.5 |
| COc1cc(CC(=O)CC2c3c(cc4c(c3OC)OCO4)CC[N+]2(C)C)cc(OC)c1OC (stereo not drawn) [Compound B0008] | 84.0 | 101.9 | 70.0 | 148.3 | 264.1 | 46.0 |
| COc1c2c(cc3c1C(CC(=O)Cc1ccc(Br)cc1)[N+](C)(C)CC3)OCO2 (stereo not drawn) [Compound B0011] | 95.7 | 78.7 | 120.0 | 158.6 | 212.6 | 78.0 |
| COc1c2c(cc3c1C(CC(=O)Cc1ccc(C#N)cc1)[N+](C)(C)CC3)OCO2 (stereo not drawn) [Compound B0012] | 97.8 | 79.4 | 278.5 | 167.4 | 212.0 | 145.1 |
| COc1ccc(CCC(=O)CC2c3c(cc4c(c3OC)OCO4)CC[N+]2(C)C)cc1 (stereo not drawn) [Compound B0016] | 99.2 | 79.9 | 109.4 | 167.7 | 213.6 | 72.2 |
| COc1c2c(cc3c1C(CC(=O)CCc1ccc(Cl)cc1)[N+](C)(C)CC3)OCO2 (stereo not drawn) [Compound B0017] | 58.9 | 45.6 | 75.2 | 99.6 | 122.0 | 49.6 |
| COc1c2c(cc3c1C(CC(=O)CCc1ccc(F)cc1)[N+](C)(C)CC3)OCO2 (stereo not drawn) [Compound B0018] | 70.3 | 53.5 | 69.1 | 118.8 | 143.0 | 45.6 |
| COc1c2c(cc3c1C(CC(=O)/C=C/c1ccc(Cl)cc1)[N+](C)(C)CC3)OCO2 (stereo not drawn) [Compound B0019] | 59.7 | 96.0 | 123.3 | 101.0 | 256.5 | 81.4 |
| CCOc1ccc(C(=O)CC2c3c(cc4c(c3OC)OCO4)CC[N+]2(C)C)cc1F (stereo not drawn) [Compound B0020] | 30.1 | 68.0 | 47.8 | 51.6 | 181.6 | 24.9 |
| COc1ccc(C(=O)CC2c3c(cc4c(c3OC)OCO4)CC[N+]2(C)C)cc1C (stereo not drawn) [Compound B0021] | 75.9 | 104.7 | 123.6 | 126.9 | 256.4 | 42.9 |
| COc1cccc(OC)c1C(=O)CC1c2c(cc3c(c2OC)OCO3)CC[N+]1(C)C (stereo not drawn) [Compound B0023] | 99.4 | 100.1 | 81.8 | 166.1 | 245.3 | 28.4 |
| COc1ccc(C(=O)CC2c3c(cc4c(c3OC)OCO4)CC[N+]2(C)C)cc1 (stereo not drawn) [Compound B0024] | 93.2 | 116.7 | 58.2 | 155.8 | 285.9 | 20.2 |
| COc1ccccc1C(=O)CC1c2c(cc3c(c2OC)OCO3)CC[N+]1(C)C (stereo not drawn) [Compound B0025] | 96.3 | 86.8 | 211.8 | 159.6 | 234.6 | 137.7 |
| COc1ccc(C(=O)CC2c3c(cc4c(c3OC)OCO4)CC[N+]2(C)C)cc1OC (stereo not drawn) [Compound B0026] | 88.8 | 87.4 | 55.3 | 152.0 | 233.3 | 28.8 |
| COc1ccc(C(=O)CC2c3c(cc4c(c3OC)OCO4)CC[N+]2(C)C)c(F)c1 (stereo not drawn) [Compound B0027] | 82.3 | 100.0 | 41.5 | 140.9 | 266.9 | 21.6 |
| COc1c2c(cc3c1C(CC(=O)CCc1ccc(O)cc1)[N+](C)(C)CC3)OCO2 (stereo not drawn) [Compound B0028] | 103.5 | 131.0 | 125.3 | 199.1 | 357.7 | 55.0 |
| COc1ccc(CC(=O)CC2c3c(cc4c(c3OC)OCO4)CC[N+]2(C)C)c(OC)c1 (stereo not drawn) [Compound B0029] | 89.4 | 77.0 | 40.1 | 171.9 | 210.3 | 17.6 |
| COc1ccccc1CC(O)CC1c2c(cc3c(c2OC)OCO3)CCN1C (stereo not drawn) [Compound B0030] | 62.6 | 103.4 | 172.9 | 107.2 | 276.1 | 90.1 |
| COc1c2c(cc3c1C(CC(=O)Cc1ccccc1C)[N+](C)(C)CC3)OCO2 (stereo not drawn) [Compound B0031] | 109.6 | 99.6 | 65.6 | 210.8 | 272.0 | 28.8 |
| COc1ccccc1CC(O)CC1c2c(cc3c(c2OC)OCO3)CC[N+]1(C)C (stereo not drawn) [Compound B0032] | 115.0 | 109.0 | 35.5 | 221.1 | 297.7 | 15.6 |
